Assay results from paper PMC10166914, “GTN057, a komaroviquinone derivative, induced myeloma cells' death in vivo and inhibited c‐MET tyrosine kinase” (Cancer Medicine, 2023).

Columns and labels:
[1] = test system: KMS28 cells; test: Growth inhibition, trypan blue exclusion assay; format: cell-based; settings: Homo sapiens, KMS28, 48 h
Experimental: (§1) For the trypan blue exclusion assay, 2 × 10^5 cells/mL of each MM cell line were incubated with various concentrations of GTN057 (0–20 μM). The cells were cultured in triplicate plates, and viable cells were evaluated by a trypan blue exclusion assay (Trypan Blue Stain 0.4%, Gibco) using an automatic cell counter (TC20™, Bio‐Rad).

[2] = test system: MUM24 cells; test: Growth inhibition, trypan blue exclusion assay; format: cell-based; settings: Homo sapiens, MUM24, 48 h
Experimental: as §1

[3] = test system: KMM1 cells; test: Growth inhibition, trypan blue exclusion assay; format: cell-based; settings: Homo sapiens, KMM-1, KMM1, 48 h
Experimental: as §1

[4] = test system: KMS21 cells; test: Growth inhibition, trypan blue exclusion assay; format: cell-based; settings: Homo sapiens, KMS21, 48 h
Experimental: as §1

[5] = test system: KMS26 cells; test: Growth inhibition, trypan blue exclusion assay; format: cell-based; settings: Homo sapiens, KMS-26, KMS26, 48 h
Experimental: as §1

[6] = test system: KMS11 cells; test: Growth inhibition, trypan blue exclusion assay; format: cell-based; settings: Homo sapiens, KMS-11, KMS11, 48 h
Experimental: as §1

[7] = test system: KMS34 cells; test: Growth inhibition, trypan blue exclusion assay; format: cell-based; settings: Homo sapiens, KMS-34, KMS34, 48 h
Experimental: as §1

[8] = test system: KMS27 cells; test: Growth inhibition, trypan blue exclusion assay; format: cell-based; settings: Homo sapiens, KMS-27, KMS27, 48 h
Experimental: as §1

[9] = test system: KMS11 cells; test: In vivo tumor growth assay, KMS11 xenograft; parameters: species or system ICR/SCID mice; settings: 100 mg/kg i.p., after 2 weeks of treatment, KMS11-xenografted SCID mice
Experimental: For the in vivo tumor growth assay, we injected 3 × 10^7 cells of KMS11 cells subcutaneously into the flank of male 5‐week‐old ICR/SCID mice. When the tumors reached 100 mm^3, we injected (i.p.) 20 or 100 mg/kg of GTN057 solubilized in 1% Tween® 80 + 10% DMSO in saline twice every 3 days for 2 weeks. We measured the tumor volumes every day for 2 weeks as the length × width^2 × 0.52.[21]

[10] = test system: MUM24 cells; test: ROS production and growth recovery by anti-oxidants; format: cell-based, human
Experimental: First, 2 × 10^5 cells/mL of MUM24 cells were incubated with or without 6 mM NAC (N‐acetyl cysteine; Sigma‐Aldrich) or 3 mM GSH (glutathione; Sigma‐Aldrich) for 2 h. Next, 20 μM GTN057 was added and cultured for an additional 72 h. Cells were incubated with 1 μM CM‐H2DCFDA (i.e., 5‐(and‐6)‐chloromethyl‐2′, 7′‐dichlorodihydrofluorescein diacetate) for 30 min. For the evaluation of ROS production, the cells were stained with CM‐H2DCFDA and analyzed using a FACS (fluorescence‐activated cell sorting) system (LSR II, BD Biosciences). For the assessment of growth recovery by NAC or GSH, 2 × 10^5 cells/mL of MUM24 cells were also treated with 20 μM GTN057 in the presence or absence of 6 mM NAC or 3 mM GSH as described above. We conducted a trypan blue exclusion test to determine the numbers of viable cells.

[11] = test system: ERK1/2; test: Western blot, dose-dependent inhibition of ERK1/2 phosphorylation in KMS34 cells; format: cell-based; settings: Homo sapiens, KMS-34, Western blot densitometry, read-out: 50% inhibition of the phosphorylation of ERK1/2
Experimental: (§2) MM cells (4 × 10^5 cells/mL) were incubated with 0–20 μM GTN057 for 12 h. The cells were then co‐cultured with 0–50 ng/mL of hepatocyte growth factor (HGF) (PeproTech, London) or 0–20 ng/mL of fibroblast growth factor (FGF)‐2 (PeproTech) with 1 unit/mL of heparin in RPMI containing 4% dialyzed FCS (Gibco) for the KMS11 and KMS34 cells and 10% dialyzed FCS for the KMS21 cells for 15 min at RT (room temperature). A549 cells were co‐cultured with 0–50 ng/mL of epidermal growth factor (EGF) (PeproTech) in Eagle's MEM containing 4% dialyzed FCS for 15 min at RT. […]
(§3) The protein concentrations were measured using a BCA Protein Assay Kit (Thermo Fisher Scientific). […]
(§4) Antibodies against phospho‐STAT3 (Tyr705), phospho‐Akt (Ser473), p44/42 MAPK (Erk 1/2), phosphor‐p44/42 MAPK (Thr202/Tyr 204), and phospho‐c‐Met (Tyr1234/1235) (all from Cell Signaling Technology, Danvers, MA) or STAT3, Akt, c‐Met, and β‐actin (all from Santa Cruz Biotechnology, Santa Cruz, CA) or phospho‐c‐Met (Tyr1230/1234/1235) (Biosource, Camarillo, CA for KMS34 cells in Figure 3A) were each used at 1:1000 dilution. […] The Western blotting signals were detected by enhanced ECL chemiluminescence (Amersham). The signal intensity of each band was quantified densitometrically with ImageJ software (ver. 1.48, U.S. National Institutes of Health).

[12] = test system: EGF stimulated ERK1/2, STAT3, AKT1 phosphorylation; test: Western blot, EGF-stimulated signaling in A549 cells; format: cell-based, human; settings: EGF stimulation
Experimental: as §2, §3, §4

[13] = test system: FGF-2 stimulated ERK1/2, STAT3, AKT1 phosphorylation; test: Western blot, FGF-2-stimulated signaling in KMS11 cells; format: cell-based, human; settings: KMS11 cells stimulated by FGF-2
Experimental: as §2, §3, §4

[14] = target: T1, c-MET (Homo sapiens, UniProt P08581); test: Western blot, dose-dependent inhibition of c-MET phosphorylation in KMS34 cells; format: cell-based; settings: Western blot densitometry, read-out: 50% inhibition of the phosphorylation of c-MET
T1 construct: endogenous in cells; host or cells: KMS34 multiple myeloma cells
Experimental: as §2, §3, §4

T1 sequence (P08581 25-1390): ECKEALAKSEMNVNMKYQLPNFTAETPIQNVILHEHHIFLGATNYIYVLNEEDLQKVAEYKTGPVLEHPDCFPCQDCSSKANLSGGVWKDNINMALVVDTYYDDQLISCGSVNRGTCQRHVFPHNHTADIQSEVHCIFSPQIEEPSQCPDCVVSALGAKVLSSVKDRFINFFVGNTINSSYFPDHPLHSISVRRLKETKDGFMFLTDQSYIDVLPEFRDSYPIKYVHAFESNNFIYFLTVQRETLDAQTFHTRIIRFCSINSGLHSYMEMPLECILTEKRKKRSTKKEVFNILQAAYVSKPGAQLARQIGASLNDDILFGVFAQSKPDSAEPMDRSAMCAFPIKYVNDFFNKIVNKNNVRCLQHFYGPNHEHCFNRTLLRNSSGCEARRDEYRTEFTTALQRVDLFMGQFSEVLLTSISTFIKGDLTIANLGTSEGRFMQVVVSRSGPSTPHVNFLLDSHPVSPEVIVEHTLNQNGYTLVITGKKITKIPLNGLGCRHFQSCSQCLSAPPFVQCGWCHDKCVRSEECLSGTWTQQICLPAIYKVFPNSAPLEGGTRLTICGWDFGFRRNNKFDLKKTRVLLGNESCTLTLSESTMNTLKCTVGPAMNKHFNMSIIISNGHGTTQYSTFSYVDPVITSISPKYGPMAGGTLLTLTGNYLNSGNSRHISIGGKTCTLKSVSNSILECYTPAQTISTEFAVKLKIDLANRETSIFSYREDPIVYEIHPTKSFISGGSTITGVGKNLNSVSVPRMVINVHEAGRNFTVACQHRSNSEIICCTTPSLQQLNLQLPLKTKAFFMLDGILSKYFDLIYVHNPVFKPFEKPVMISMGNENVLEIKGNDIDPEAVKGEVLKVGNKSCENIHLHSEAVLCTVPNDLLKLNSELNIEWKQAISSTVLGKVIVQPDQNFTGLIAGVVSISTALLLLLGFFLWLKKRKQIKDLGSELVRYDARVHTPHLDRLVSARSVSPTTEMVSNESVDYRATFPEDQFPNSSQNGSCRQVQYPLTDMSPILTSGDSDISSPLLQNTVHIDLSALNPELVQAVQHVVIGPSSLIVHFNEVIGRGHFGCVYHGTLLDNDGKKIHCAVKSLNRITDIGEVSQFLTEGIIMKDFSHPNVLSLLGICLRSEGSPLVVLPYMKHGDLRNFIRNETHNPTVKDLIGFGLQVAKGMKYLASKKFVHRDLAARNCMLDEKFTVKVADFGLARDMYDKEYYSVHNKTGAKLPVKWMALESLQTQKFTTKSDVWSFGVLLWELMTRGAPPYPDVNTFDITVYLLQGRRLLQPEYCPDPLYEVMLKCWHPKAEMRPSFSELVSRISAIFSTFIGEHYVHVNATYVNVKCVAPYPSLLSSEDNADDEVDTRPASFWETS

For COc1c(OC(C)=O)c2c(c(O)c1C(C)C)C(=O)CC1C(C)(C)CCC[C@]1(O)C2 (stereo partly shown) [GTN057], the IC50 [1] was 24 µM, the IC50 [2] was 5.29 µM and the IC50 [3] was 20.5 µM. It also gave an IC50 [4] of 10.1 µM, an IC50 [5] of 9.91 µM and an IC50 [6] of 11.2 µM. For the same compound, the IC50 [7] was 20.1 µM, the IC50 [8] was 7.93 µM and the Average tumor volume [9] was 0.71 ± 0.17 cm^3. The Average tumor weight [9] was 0.98 ± 0.16 g, the “Abrogation of growth inhibition and apoptosis by anti-oxidants” value ([10]; 20 μM GTN057 with 6 mM NAC or 3 mM GSH) was “not significantly abrogated” and the ROS production ([10]; 20 μM, MM cells, CM-H2DCFDA, FACS) was “produced ROS”. The IC50 [11] was 21.3 µM, the “ERK1/2, STAT3, AKT1 phosphorylation levels” value [12] was “not altered” and the “ERK1/2, STAT3, AKT1 phosphorylation levels” value [13] was “did not clearly change”. It also gave an IC50 [14] of 35.9 µM.
